Data on one compound can be found in article PMC3948684, “Approaches to Improve the Oral Bioavailability and Effects of Novel Anticancer Drugs Berberine and Betulinic Acid” (PLoS ONE, 2014).

Molecules are shown by their SMILES. Where two headings read alike, the source gives them in different places.

One series has as its system H1650 colonies. Briefly: Clonogenic assay (colony formation). The format is cell-based, Human. To be noted: BBR at 1, 3 and 10 µM. The source says: Supplementary file pone.0089919.s002.tif: Figure S2 Effect of BBR on colony formation. A) Effects of BBR free drug and BBR-SD on spheroid number B) on spheroid sizes. Representative clonogenic images of H1650 colonies form C) control and D) BBR free drug and BBR-SD treated groups. Colonies were stained with crystal violet staining for better visibility. Each data point is represented as mean±sem (n = 6–10). **p<0.01 and ***p<0.001 Vs respective untreated control groups. (TIF) Click here for additional data file.

A short description of series [1]: Toxicity on chronic administration (body weights, H&E histopathology). To be noted: 100 mg/kg for 3 weeks. As to the method:
A549 cells were grown in F12K Medium containing 10% FBS and standard antibiotic mix at 5% CO2 and 37°C. For orthotopic lung tumor model, mice were anesthetized with Isoflurane and a 5 mm skin incision was made to the left chest, 5 mm below the scapula. Hamilton syringes (1 ml) with 28-gauge hypodermic needles were used to inject the cell inoculums through the sixth intercostal space into the left lung. The needle was quickly advanced to a depth of 3 mm and quickly removed after the injection of the A549 cells (2 million/mouse) suspended in 100 µL PBS (pH 7.4) into the lung parenchyma. For metastatic lung tumor models H1650 cells (2 million in 100 µL PBS) were intravenously administered to mice via tail vein. […] Wounds from the incisions were closed with surgical skin clips. […] Drug treatment was started 2 weeks after the tumor cell implantation. BBR free drug or SD formulation was given orally at the dose of 100 mg/kg daily for 3 weeks. […] Body weights were monitored throughout the study. Animal survival rates were recorded during the study. The lung weights and tumor volumes were used for assessment of therapeutic activity of the treatments. After sacrificing the animals lung weights and tumor nodules were recorded in metastatic tumor models.
Orthotopic lung tumors and mice small intestine segments (ileum) were processed for normal histopathological procedures and 5–10 µm sections were made. After deparaffinization and rehydration, sections were stained with Hematoxylin and Eosin for normal histological evaluation. Similarly, small intestine segments were processed and stained with H&E and visualized under normal microscope.

On the set-up of series [2]: method as in PMID 16956957, PMID 20634337. To be noted: oral ref 21, 22; cited from earlier work.
The test system of series [3] is TUNEL positive apoptotic cells. Briefly: TUNEL assay on orthotopic lung tumor sections. It counts as in vivo, athymic Nu/nu mice. As to the method:
Terminal deoxynucleotidyl transferase-mediated dUTP nick end labeling (TUNEL) assay was used to study the DNA fragmentation or apoptosis detection. TUNEL assay was performed on 4–5 µm thick sections as per the kit manual. Formalin-fixed tumor tissues were embedded in paraffin and sectioned ([…]). DeadEndTM Colorimetric Apoptosis Detection System (Promega, Madison, WI) allows the recognition of apoptotic nuclei in paraffin-embedded tissue sections fixed on slides according to the manufacturer's protocol. Briefly, the equilibration buffer was added to slides and incubated for 10 minutes followed by 10-minute incubation in […] proteinase K solution. The sections were washed in PBS and incubated with TdT enzyme at 37°C for 1 h in a humidified chamber for incorporation of biotinylated nucleotides at the 3-OH ends of DNA. The slides were incubated in horseradish peroxidase-labeled streptavidin to bind the biotinylated nucleotides followed by detection with stable chromagen DAB. The images on the slides were visualized with an Olympus BX40 light microscope equipped with a computer-controlled digital camera (DP71, Olympus Center Valley, PA, USA). Three slides per group were stained and apoptotic cells were identified by dark brown […] staining.

The test system of a further series is H1650 cells. Briefly: In vitro cytotoxicity, crystal violet staining. The following applies: Homo sapiens, NCI-H1650; BBR, 72 h exposure. The format is cell-based. The method, then:
(§1) NSCLC cells A549 and H1650 were plated in 96 well plates at 10,000 cells/well density. After 24 h, cells were treated with various concentrations of BBR and BA. DMSO (0.1%) treated cells were considered as control cells. After 72 h treatment, cells were fixed in 0.25% gultaraldehyde and stained with 0.05% crystal violet staining. Percent of cell viability or cell kill was calculated by considering DMSO treated control cells as 100% viable (zero % cell kill).

The subject of another series is A549 cells. The series can be described thus: In vitro cytotoxicity, crystal violet staining. To be noted: Homo sapiens, BBR, 72 h exposure. It counts as cell-based. The method, then: as §1
On the set-up of series [4]: method as in PMID 19283771. To be noted: oral administration of 100 mg/kg in rats ref 24; cited from earlier work.
Series [5] can be described thus: Oral pharmacokinetic study. It counts as in vivo, Sprague Dawley rats. The method, then: Rats were fasted overnight before the start of the experiments and randomly divided into two experimental groups. […] Pharmacokinetic parameters were analyzed using non-compartmental techniques with WinNonlin® 5.0 software (Pharsight Corporation, Mountain View, CA, USA). SHAM analysis (i.e., Slope, Height, Area, and Moment) utilized plasma concentration-time data to estimate the area under the curve (AUC), apparent terminal elimination rate constant (λz), terminal elimination half-life (t1/2) and the area under the first moment of the plasma concentration–time curve (AUMC). The AUC was calculated for each rat using the piecewise log trapezoidal areas and extrapolated to infinity by dividing λz into the last measured plasma concentration (i.e. Clast/λz). From the values of AUC0_0-∞ and AUMC0-∞, the clearance (CL), mean residence time (MRT) and volume of distribution at tissue equilibrium (Vss) were calculated based on noncompartmental monoexponential assumptions as: CL = Dose/AUC, MRT≅AUMC/AUC and Vss = CL×MRT. The noncompartmental parameters were calculated for each rat before averaging dose groups. The pharmacokinetic parameters such as AUC, Cmax, t1/2, tmax, MRT, etc were compared between the free drug and SD formulations.

In a further series the test system is VEGF. Briefly: Quantification of VEGF by ELISA. It counts as in vivo, athymic Nu/nu mice. As to the method:
VEGF levels were estimated in plasma, tumor tissue homogenates by ELISA method. Tumors were homogenized in RIPA lysis buffer (20 mM Tris-HCl pH 7.5, 150 mM NaCl, 1% Triton X-100) containing proteinase inhibitors (Complete Proteinase Inhibitor Cocktail Tablets, Roche, Indianapolis. IN). Tissue debris was pelleted and the resulting supernatant was used in subsequent analysis. Total protein concentration was determined with a BCA protein assay (Pierce, Rockford, IL). VEGF concentrations were determined according to the manufacturer's instructions. A minimum of 3 tumors per group were analyzed in duplicate.
For orientation: ELISA stands for enzyme-linked immunosorbent assay.

The mark [6] stands for this setting: Sprague Dawley, rat, plasma, po, 100 mg/kg orally.

Regarding `COc1ccc2cc3[n+](cc2c1OC)CCc1cc2c(cc1-3)OCO2.[Cl-]` [BBR free drug, 5,6-dihydro-9,10-dimethoxy-benzo[g]-1,3-benzodioxolo[5,6-a]quinolizinium, chloride], the “number of colonies and colony sizes” value with H1650 colonies is recorded as “significantly decreased”. Also, in [1], the “H&E histopathology of small intestine (ileum)” value is on record as “No visible toxicity”, the “body weight changes during treatment” value is “no significant change” and the “signs of toxicity on chronic administration” value is “did not result in any toxicity”. The bioavailability entry in [2] is given as “less than 1%”. For the same compound, in series [3], the “increase in TUNEL positive apoptotic cells compared to control tumors” value amounted to 2.74 fold. In the series with H1650 cells, the IC50 was determined as 8.39 ± 1.03 µM. This compound came in with an IC50 with A549 cells of 6.45 ± 0.46 µM. In addition, the Cmax in series [4] was 4 ng/mL. This compound yielded a CL in [5] (100 mg/kg orally) of 2.034 ± 0.2813 mL/min/kg. Besides, in [5] (BBR, 100 mg/kg orally), the “AUMC (0-∞)” value was determined as 5619.03±651.24 ng.h^2/ml and the Vss turned out to be 1.04839 ± 0.10635 L/kg. In addition, in series [5] (Sprague Dawley, rat, plasma, po, 100 mg/kg, read-out: t½ (converted)), the half-life is 5.95 ± 0.47 h. Besides, in [5] (setting [6]), the MRT worked out at 6.85 ± 1.68 h and the Tmax stood at 1.41 ± 0.67 h. Besides, the AUC(0-inf) in [5] (Sprague Dawley, rat, plasma, po, BBR, 100 mg/kg orally) is 819 ± 82 ng·h/mL. The same compound registered a Cmax in series [5] (Sprague Dawley, rat, po, BBR, 100 mg/kg orally, plasma) of 147 ± 21.8 ng/mL. In the series with VEGF (untreated control 284.71±42.84), the “VEGF levels in tumor lysates” value was found to be 137.59±20.84 pg/mg protein. Further, the “VEGF levels in serum” value in the series on VEGF (untreated control 597.90±54.03) was found to be 315.41 ± 44.06 pg/mL.

In general, IC50 refers to the concentration that inhibits the measured activity by half. A high value points to lower potency. As usually defined, the Cmax is the highest concentration seen after dosing. In general, MRT refers to a mean duration of stay, worked out from the concentration-time curve. For orientation: Tmax means the time at which the peak concentration occurs. As a reminder, the AUC(0-inf) is the area under the concentration-time curve extrapolated to infinity. A higher AUC(0-inf) goes with high exposure.
